Assay results reported in patent US20260209260A1, “VECTORIZED NHC IRIDIUM(III) COMPLEXES AND USE THEREOF IN PHOTODYNAMIC THERAPY AND/OR DIAGNOSTIC” (CENTRE NATIONAL DE LA RECHERCHE SCIENTIFIQUE, priority 2022, published 2026).
Where “and” joins values, the source holds several entries; their conditions need not be identical. Equal entries are not always repeated. Where two headings read alike, the source gives them in different places.

How the values were obtained:
[1] = system: MC3T3 osteoblast cells (non-tumor); test: Cell viability assay (MTT), dark and blue light; type: cell-based, Murine; conditions: for Photosensitizing index (PI) MC3T3: dark vs blue light 458 nm; for Photosensitizing index (PI): MC3T3, dark vs blue light
Procedure, shortened: (§1)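 Cells were either kept dark for the full 72 h with complex or given 10 min irradiation after 8 h dark pre-incubation, then held dark to 72 h. DMSO fixed at 0.1% (v/v); MTT formazan measured at 570 nm; ≥3 independent triplicate experiments.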

[2] = system: NIH-3T3 fibroblast cells (non-tumor); test: Cell viability assay (MTT), dark and blue light; type: cell-based, Murine; conditions: for Photosensitizing index (PI) NIH-3T3: dark vs blue light 458 nm; for Photosensitizing index (PI): NIH-3T3, dark vs blue light
Procedure, shortened: as §1

[3] = Lipophilicity: octanol-water partition coefficient, shake-flask method
Procedure, shortened: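 Octanol and water mutually pre-saturated for 24 h; compound ([…] stock in aqueous phase) partitioned against equal volume n-octanol, mixed 15 min, phases separated by centrifugation.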

[4] = UV/Vis absorption spectra; type: physicochemical; conditions: room temperature, air-saturated CH2Cl2 or CH2Cl2/MeOH (1:1), 50 μM; ε in brackets, sh = shoulder
Method: UV/Vis absorption spectra were recorded at RT on solutions contained in quartz cuvettes (optical pathlength 1 cm, Hellma®) with a PerkinElmer® UV/VIS/NIR spectrophotometer Lambda 950 and a PerkinElmer® detector UV/VIS/NIR Accessory 2D Detector Module.

[5] = Emission lifetime measurement; type: physicochemical
Procedure, shortened: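 Emission lifetimes measured by time-correlated single-photon counting (0.5 ns time resolution), excitation from a D2 lamp and a 405 nm pulsed diode laser. Estimated error 5% on lifetime.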

[6] = Luminescence emission spectra and quantum yield; type: physicochemical; conditions: for λem: CH2Cl2, room temperature, λexc 365 nm or 470 nm; for ΦP emission phosphorescence quantum yield: room temperature, reference POPOP in hexane or rhodamine B in ethanol
Procedure, shortened: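 Spectrofluorometric fluorescence/phosphorescence emission spectra of the iridium(III) complexes recorded in CH2Cl2 at room temperature. Quantum yields by the Demas–Crosby relative method on solutions at RT, from integrated emission band areas versus a reference standard of known yield, corrected for solvent refractive index.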

[7] = 8 h in the dark, blue light 458 nm 10 min, then dark up to 72 h, read-out: GI50 MC3T3 Blue
[8] = in the dark, 72 h, read-out: GI50 MC3T3 Dark
[9] = 8 h in the dark, blue light 458 nm 10 min, then dark up to 72 h, read-out: GI50 NIH-3T3 Blue
[10] = in the dark, 72 h, read-out: GI50 NIH-3T3 Dark
[11] = n-octanol/water, shake-flask, mean of at least three determinations
[12] = MC3T3, blue light, read-out: GI50
[13] = NIH-3T3, blue light, read-out: GI50

Row | SMILES | GI50 [1, 7] [µM] | Photosensitizing index (PI) MC3T3 [1] | GI50 [1, 8] | GI50 [2, 9] | Photosensitizing index (PI) NIH-3T3 [2] | GI50 [2, 10] [µM] | Log P [3] | λmax (nm) ε (M^−1 · cm^−1) [4] | τ1 emission lifetime [5] [ns] | λem [6] | ΦP emission phosphorescence quantum yield [6] [%] | Log P [3, 11] | GI50 [1, 12] [µM] | Photosensitizing index (PI) [1] | GI50 ([1]; MC3T3, dark, read-out: GI50) [µM] | GI50 [2, 13] [µM] | Photosensitizing index (PI) [2] | GI50 ([2]; NIH-3T3, dark, read-out: GI50) [µM]
1 | COC(=O)c1ccc2[n+](c1)[Ir-3]13([c]4ccccc4-2)([c]2ccccc2-c2ccc(C(=O)OC)c[n+]21)[c]1n(CCCNC(=O)CCCC[C@@H]2SC[C@@H]4NC(=O)N[C@@H]42)cc[n+]1-c1cccc[n+]13.F[P-](F)(F)(F)(F)F [I-e] | 41.1 | 1.4 | 58.8 µM and 56.8 µM | 135 µM | >1.9 | > 250 | 0.25 ± 0.04 | 310 (sh) (19500), 365 (sh) (4690), 432 (4155) nm (M^−1 · cm^−1) | 224 | 511-550 nm | 3.7 | – | – | – | – | – | – | –
2 | F[P-](F)(F)(F)(F)F.O=C(CCCC[C@@H]1SC[C@@H]2NC(=O)N[C@@H]21)NCCCn1cc[n+]2[c]1[Ir-3]13([c]4ccccc4-c4ccc5ccccc5[n+]41)([c]1ccccc1-c1ccc4ccccc4[n+]13)[n+]1ccccc1-2 [I-g] | 31.4 | 1.8 | 85.2 µM and 55.2 µM | 81.7 µM and 61.7 µM | 1.8 | 110 | 1.26 ± 0.04 | 336 (19000), 437 (4600) nm (M^−1 · cm^−1) | 203 | 593-652 nm | <0.1 | – | – | – | – | – | – | –
3 | F[P-](F)(F)(F)(F)F.O=C(CCCC[C@@H]1SC[C@@H]2NC(=O)N[C@@H]21)NCCCn1cc[n+]2[c]1[Ir-3]13([c]4ccccc4-c4c5ccccc5cc[n+]41)([c]1ccccc1-c1c4ccccc4cc[n+]13)[n+]1ccccc1-2 [I-h] | 5 | 8.4 | 42.2 µM | 10.4 µM | 9.7 | 101 | – | 337 (sh) (12520), 352 (sh) (11890), 380 (sh) (8100), 436 (4855) nm (M^−1 · cm^−1) | 202 | – | 3.0 | 0.87 ± 0.02 | – | – | – | – | – | –
4 | F[P-](F)(F)(F)(F)F.O=C(CCCC[C@@H]1SC[C@@H]2NC(=O)N[C@@H]21)NCCCn1cc[n+]2[c]1[Ir-3]13([c]4ccccc4-c4sc5ccccc5[n+]41)([c]1ccccc1-c1sc4ccccc4[n+]13)[n+]1ccccc1-2 [I-k] | 19.2 | 1.3 | 25.8 µM | 31.1 µM | 2.4 | 75.8 | 0.87 ± 0.03 | 321 (25835), 372 (sh) (7480), 406 (6130) nm (M^−1 · cm^−1) | 322 | – | 7.0 | – | – | – | – | – | – | –
5 | F[P-](F)(F)(F)(F)F.O=C(O)CC[C@H](NC(=O)N[C@@H](CCCCNC(=O)CCn1cc[n+]2[c]1[Ir-3]13([c]4ccccc4-c4c5ccccc5cc[n+]41)([c]1ccccc1-c1c4ccccc4cc[n+]13)[n+]1ccccc1-2)C(=O)O)C(=O)O [III-h] | 8.3 | – | 52.4 µM | 19 µM | – | > 100 | – | 336 (sh) (23695), 352 (sh) (22270), 378 (sh) (15520), 435 (9310) nm (M^−1 · cm^−1) | 215 | 628 nm | 3.0 | 0.88 ± 0.02 | 8.3 | 6.3 | 52.4 | 19 | >5.3 | > 100
6 | F[P-](F)(F)(F)(F)F.O=C(O)CC[C@H](NC(=O)N[C@@H](CCCCNC(=O)CCn1cc[n+]2[c]1[Ir-3]13([c]4cccc5ccc6ccc[n+]1c6c45)([c]1cccc4ccc5ccc[n+]3c5c14)[n+]1ccccc1-2)C(=O)O)C(=O)O [III-i] | – | – | 250 µM | – | – | > 100 | 0.60 ± 0.01 | 317 (19830), 412 (5510) nm (M^−1 · cm^−1) | 227 | 548 nm | – | – | 40.6 | 6.2 | 250 | 55.8 | >1.8 | > 100
